Data taken from US20260092054A1, “FUSED RING COMPOUND AND PHARMACEUTICAL CONTAINING SAME” (KAKEN PHARMACEUTICAL CO., LTD., priority 2022, published 2026).

How the values were obtained:
[1] = system: human STAT6; assay: Human STAT6 dependent reporter activity (IL-4 stimulated STAT6 reporter assay using STAT6-HEK293 cells); type: cell-based; settings: Homo sapiens, IL-4 stimulation, luciferase activity, read-out: Inhibition rate (%); for inhibition at 0.1 µM: compound 0.1 μmol/L; for inhibition at 1 µM: compound 1 μmol/L
Procedure: Test Example 2: Measurement of Human STAT6 Dependent Reporter Activity
1) Construction of Human STAT6-HEK293 Cells
HEK 293 cells maintenance cultured by [Penicillin-Streptomycin (Thermo Fisher Scientific) and FBS, 1 vol % and 10 vol % respectively added to DMEM high glucose (Thermo Fisher Scientific)](manufactured by ATCC) were collected, and suspended in 10 mL of 0.5% BSA/PBS. 1×10^6 cells were collected, the supernatant was removed by centrifuging, and the cells were suspended in 100 μL of Nucleofector solution V (manufactured by Lonza K.K.). 2 μg of STAT6 vector [plasmid DNAs incorporating human STAT6 sequences in pcDNA3.1 (Invitrogen)] was added, and the STAT6 vector was introduced into the HEK293 cells using the program Q-001 initially registered in the Nucleofector®2b. A cell line (STAT6-HEK293 cells) consistently expressing STAT6 was acquired by selecting resistant cells in a medium containing Geneticin® (manufactured by Thermo Fisher Scientific). 2) STAT6 reporter assay using STAT6-HEK293 cells 3×10^6 STAT6-HEK293 cells maintained in assay medium [culture medium supplemented with 1 vol % Geneticin®] were harvested and seeded in a 10 cm dish. 3 μg of a STAT6 reporter vector [plasmid in which a sequence containing a STAT6 binding sequence and a C/EBP binding sequence in tandem was incorporated into pGL4.27 (manufactured by Promega Corporation)] and 9 μL of FuGENE® HD transfection reagent (manufactured by Promega Corporation) were added to 500 μL of Opti-MEM® (manufactured by Thermo Fisher Scientific) to prepare transfection solutions. The transfection solution was vortexed and left to stand for about 5 minutes, then added dropwise to the STAT6-HEK293 cells, which were then cultured overnight in a C02 incubator to produce STAT6 reporter cells.
The prepared STAT6 reporter cells were seeded on B&W isoplate-96 TC (PerkinElmer Japan Co., Ltd.) (3×10^4 cells/50 μL/well) and cultured overnight in a C02 incubator (37° C., 5% C02). 50 μL of assay medium was added to each well instead of the STAT6 reporter cells. The compound addition solution was prepared by diluting the DMSO solution of the example compound 250-fold using the assay medium. 20 μL of compound addition solution or 0.4 vol % DMSO-containing assay medium was added to the plate, and the plate was then cultured in a CO2 incubator for 1 hour. 10 μL of 80 ng/mL human IL-4 solution (Peprotech) or assay medium was added to each well, and the cells were cultured in a CO2 incubator for 6 hours.
STAT6 reporter activity was measured using the Bright-Glo® Luciferase Assay System (Promega). 100 μL of Bright-Glo® reagent was added to each well, and luciferase activity was measured using Infinite® F500. The inhibition rate of each Example compound was calculated by the following formula using the luciferase activity value (G) when no Example compound was added and stimulation with IL-4 was performed, the luciferase activity value (H) when no Example compound was added and stimulation with IL-4 was not performed, and the luciferase activity value (I) when each Example compound was treated and stimulation with IL-4 was performed.
Note that the viable cell rate under each condition was 70% or more, and it was determined that the luciferase activity inhibitory activity of each example compound was appropriately evaluated.

[2] = target: T1, human STAT6/pIL-4Rα (Homo sapiens, UniProt P42226); assay: Binding inhibitory activity between human STAT6/pIL-4Rα by fluorescence polarization method; settings: rhSTAT6 (123-658) / FAM-pIL-4Rα peptide
T1 construct: histidine tag
T1 sequence (P42226 123-658): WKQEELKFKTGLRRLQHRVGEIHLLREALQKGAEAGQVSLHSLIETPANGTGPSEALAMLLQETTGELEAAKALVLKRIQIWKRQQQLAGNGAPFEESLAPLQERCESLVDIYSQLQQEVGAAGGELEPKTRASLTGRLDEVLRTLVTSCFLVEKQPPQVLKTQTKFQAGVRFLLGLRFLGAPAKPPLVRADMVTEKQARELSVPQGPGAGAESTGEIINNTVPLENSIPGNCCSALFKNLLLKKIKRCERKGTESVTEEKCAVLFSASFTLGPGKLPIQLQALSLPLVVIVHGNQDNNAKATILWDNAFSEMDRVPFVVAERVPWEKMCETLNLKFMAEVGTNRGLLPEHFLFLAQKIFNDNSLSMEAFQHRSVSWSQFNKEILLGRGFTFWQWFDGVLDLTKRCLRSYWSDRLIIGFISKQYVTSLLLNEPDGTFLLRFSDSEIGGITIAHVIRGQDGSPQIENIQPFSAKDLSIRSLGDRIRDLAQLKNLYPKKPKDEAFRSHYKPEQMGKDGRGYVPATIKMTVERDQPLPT
Procedure: Test Example 1: Measurement of Binding Inhibitory Activity Between Human STAT6/pIL-p 4Rα by Fluorescence Polarization Method
1) Construction of Histidine Tag-Fused Recombinant Human STAT6 (123 to 658 Region)
A histidine tag-fused recombinant human STAT6 (hereinafter referred to as rhSTAT6) expression vector [plasmid DNA in which a nucleic acid sequence containing human STAT6 (123-658 region) was inserted into a pET28a(+) vector (Novagen)] was inserted into E. coli, and the cells were cultured overnight under culturing conditions at 17° C. with IPTG treatment. After disrupting E. coli with a high-pressure homogenizer (EmulsiFlex-C3, manufactured by AVESTIN, Inc.), affinity purification using Ni-NTA agarose (manufactured by Qiagen), cation exchange chromatography using HiTrap® CM-FF (manufactured by GE healthcare), and gel filtration chromatography using Superdex® 200 10/300GL (manufactured by GE healthcare) were performed to obtain rhSTAT6.
2) Measurement of Binding Inhibitory Activity Between Human STAT6/pIL-4Rα by Fluorescence Polarization Method
A DMSO solution of the example compound was diluted with an assay buffer [for example, a buffer containing 50 mmol/L NaCl, 10 mmol/L HEPES (pH 7.0), 1 mmol/L DTT, 1 mmol/L EDTA, and 0.01 vol % NP-40, and the like] to prepare a compound-added solution. The DMSO concentration in the compound addition solution was adjusted to 1 or 2 vol %. 10 μL of the compound addition solution and an assay buffer containing 1 or 2 vol % DMSO were added to each well of a 384-well plate. 5 μL of an assay buffer solution containing rhSTAT6 (rhSTAT6 concentration: for example, 1 μmol/L) or an assay buffer was added to each well of a 384-well plate. After leaving the plate at room temperature for 30 minutes in the dark, 5 μL of an assay buffer solution (FAM-pIL-4Rp concentration: for example, 80 nmol/L) containing FAM-labeled phosphorylated IL-4Rα peptide (sequence: FAM-Ala-pTyr-Lys-Pro-Phe-Gln-Asp-Leu-IIe-NH2) (hereinafter, FAM-pIL-4Rp) or an assay buffer containing 2 vol % DMSO was added to each well of the 384-well plate. The mixture was left to stand at room temperature for 30 minutes in the dark, and then centrifuged (200 g, 1 minute, room temperature). Fluorescence polarization values were measured using Infinite (registered trademark) F500 (manufactured by Tecan Japan Co., Ltd.) (Excitation: 485 nm, Emission: 535 nm). The inhibition rate of each Example compound was calculated according to the following formula using the fluorescence polarization value (A) when rhSTAT6 and FAM-pIL-4Rp were added without adding the Example compound, the fluorescence polarization value (B) when FAM-pIL-4Rp was added without adding the Example compound and rhSTAT6, and the fluorescence polarization value (C) when each Example compound, rhSTAT6, and FAM-pIL-4Rp were added.
In the evaluation of each example compound, the 50% inhibitory concentration (IC50) of each example compound was calculated from a linear function equation of a straight line connecting two points sandwiching 50%.

Compound: CCn1c(-c2ccc(N3CCCC3=O)cc2)nc2cc(Br)cc(C(=O)Nc3cccc(C(N)=O)c3)c21 [Ex. 4]
- inhibition at 0.1 µM [1]: 12%
- inhibition at 1 µM [1]: 64%
- IC50 [2]: 740 nM

Compound: CCn1c(-c2ccc(-n3cccn3)cc2)nc2cc(Br)cc(C(=O)Nc3cccc(C(N)=O)c3)c21 [Ex. 5]
- inhibition at 0.1 µM [1]: 8%
- inhibition at 1 µM [1]: 63%
- IC50 [2]: 660 nM

Compound: CCn1c(-c2ccc(-n3nccn3)cc2)nc2cc(Br)cc(C(=O)Nc3cccc(C(N)=O)c3)c21 [Ex. 6]
- inhibition at 0.1 µM [1]: -1%
- inhibition at 1 µM [1]: 52%
- IC50 [2]: 1140 nM

Compound: CCn1c(-c2ccc3c(c2)CCN3C(C)=O)nc2cc(Br)cc(C(=O)Nc3cccc(C(N)=O)c3)c21 [Ex. 8]
- inhibition at 0.1 µM [1]: 2%
- inhibition at 1 µM [1]: 43%
- IC50 [2]: 410 nM

Compound: CCn1c(-c2ccc(-n3cnn(C)c3=O)cc2)cc2cc(Br)cc(C(=O)Nc3ccc(F)c(C(N)=O)c3)c21 [Ex. 9]
- inhibition at 0.1 µM [1]: 10%
- inhibition at 1 µM [1]: 76%
- IC50 [2]: 450 nM

Compound: CCn1c(-c2ccc(-n3c(C)nn(C)c3=O)cc2)cc2cc(C(F)(F)F)cc(C(=O)Nc3cccc(C(N)=O)c3F)c21 [Ex. 15]
- inhibition at 0.1 µM [1]: 97%
- inhibition at 1 µM [1]: 100%
- IC50 [2]: 250 nM

Compound: COCCn1c(-c2ccc(-n3c(C)nn(C)c3=O)cc2)cc2cc(C(F)(F)F)cc(C(=O)Nc3ccc(F)c(C(N)=O)c3)c21 [Ex. 16]
- inhibition at 0.1 µM [1]: 72%
- inhibition at 1 µM [1]: 100%
- IC50 [2]: 240 nM

Compound: CCn1c(-c2ccc(-n3c(C)nn(C)c3=O)cc2)cc2cccc(C(=O)Nc3ccc(F)c(C(N)=O)c3)c21 [Ex. 17]
- inhibition at 0.1 µM [1]: 81%
- inhibition at 1 µM [1]: 99%
- IC50 [2]: 350 nM

Compound: CCn1c(-c2ccc(-n3c(C)nn(C)c3=O)cc2)cc2cc(F)cc(C(=O)Nc3ccc(F)c(C(N)=O)c3)c21 [Ex. 18]
- inhibition at 0.1 µM [1]: 80%
- inhibition at 1 µM [1]: 99%
- IC50 [2]: 350 nM

Compound: CCn1c(-c2ccc(-n3c(C)nn(C)c3=O)cn2)cc2cc(C(F)(F)F)cc(C(=O)Nc3cccc(C(N)=O)c3F)c21 [Ex. 19]
- inhibition at 0.1 µM [1]: 42%
- inhibition at 1 µM [1]: 98%
- IC50 [2]: 360 nM

Compound: CCn1c(-c2ccc(-n3c(C)nn(C)c3=O)nc2)cc2cc(C(F)(F)F)cc(C(=O)Nc3ccc(F)c(C(N)=O)c3)c21 [Ex. 20]
- inhibition at 0.1 µM [1]: 50%
- inhibition at 1 µM [1]: 98%
- IC50 [2]: 660 nM

Compound: CCn1c(-c2ccc(-n3c(C)nn(C)c3=O)cc2)cc2ccnc(C(=O)Nc3ccc(F)c(C(N)=O)c3)c21 [Ex. 21]
- inhibition at 0.1 µM [1]: 73%
- inhibition at 1 µM [1]: 98%
- IC50 [2]: 380 nM

Compound: CCn1c(-c2ccc(-n3c(C)nn(C)c3=O)cc2)cc2ccnc(C(=O)Nc3cccc(C(N)=O)c3F)c21 [Ex. 22]
- inhibition at 0.1 µM [1]: 89%
- inhibition at 1 µM [1]: 99%
- IC50 [2]: 320 nM

Compound: CCn1c(-c2ccc(-n3c(C)nn(C)c3=O)cc2)cc2cc(C(F)(F)F)nc(C(=O)Nc3ccc(F)c(C(N)=O)c3)c21 [Ex. 23]
- inhibition at 0.1 µM [1]: 86%
- inhibition at 1 µM [1]: 100%
- IC50 [2]: 240 nM

Compound: Cc1nn(C)c(=O)n1-c1ccc(-c2cc3ccnc(C(=O)Nc4ccc(F)c(C(N)=O)c4)c3n2CC2CC2)cc1 [Ex. 24]
- inhibition at 0.1 µM [1]: 54%
- inhibition at 1 µM [1]: 98%
- IC50 [2]: 320 nM

Compound: CCn1c(-c2ccc(-n3cnn(C)c3=O)cc2)cc2ccnc(C(=O)Nc3ccc(F)c(C(N)=O)c3)c21 [Ex. 25]
- inhibition at 0.1 µM [1]: 64%
- inhibition at 1 µM [1]: 97%
- IC50 [2]: 280 nM

Compound: COCCn1c(-c2ccc(-n3c(C)nn(C)c3=O)cc2)cc2ccnc(C(=O)Nc3cccc(C(N)=O)c3F)c21 [Ex. 26]
- inhibition at 0.1 µM [1]: 63%
- inhibition at 1 µM [1]: 98%
- IC50 [2]: 390 nM

Compound: COCCn1c(-c2ccc(-n3c(C)nn(C)c3=O)cc2)cc2ccnc(C(=O)Nc3ccc(F)c(C(N)=O)c3)c21 [Ex. 27]
- inhibition at 0.1 µM [1]: 52%
- inhibition at 1 µM [1]: 96%
- IC50 [2]: 350 nM

Compound: CCn1c(-c2ccc(-n3c(C)nn(C)c3=O)cc2)cc2c(C(F)(F)F)ccc(C(=O)Nc3ccc(F)c(C(N)=O)c3)c21 [Ex. 30]
- inhibition at 0.1 µM [1]: 76%
- inhibition at 1 µM [1]: 100%
- IC50 [2]: 270 nM

Compound: CCn1c(-c2ccc(N3CCOCC3=O)cc2)cc2cc(C(F)(F)F)cc(C(=O)Nc3ccc(F)c(C(N)=O)c3)c21 [Ex. 31]
- inhibition at 0.1 µM [1]: 80%
- inhibition at 1 µM [1]: 97%
- IC50 [2]: 460 nM

Compound: CCn1c(-c2ccc(-n3c(C)nn(C)c3=O)cc2)cc2cc(C)cc(C(=O)Nc3ccc(F)c(C(N)=O)c3)c21 [Ex. 32]
- inhibition at 0.1 µM [1]: 91%
- inhibition at 1 µM [1]: 100%
- IC50 [2]: 420 nM

Compound: COCCn1c(-c2ccc(-n3c(C)nn(C)c3=O)cc2)cc2cc(C(F)(F)F)cc(C(=O)Nc3cccc(C(N)=O)c3F)c21 [Ex. 33]
- inhibition at 0.1 µM [1]: 75%
- inhibition at 1 µM [1]: 100%
- IC50 [2]: 100 nM

Compound: Cc1nn(C)c(=O)n1-c1ccc(-c2cc3cccc(C(=O)Nc4ccc(F)c(C(N)=O)c4)c3n2CC2CC2)cc1 [Ex. 34]
- inhibition at 0.1 µM [1]: 39%
- inhibition at 1 µM [1]: 96%
- IC50 [2]: 610 nM
